Measurements from article PMC4621027, “Hydroxyethylamine Based Phthalimides as New Class of Plasmepsin Hits: Design, Synthesis and Antimalarial Evaluation” (PLoS ONE, 2015).
Where two headings read alike, the source gives them in different places.

How the values were obtained:
[1] = test system: human erythrocytes; test: In vitro hemolytic activity; assay type: cell-based; details: 3.125 to 100 μg/mL, 37°C, 1 h
Method: In vitro hemolytic activity of all synthesized compounds was performed as per reported protocol with slight modifications. In brief, human erythrocytes were collected from Rotary Blood Bank (New Delhi, India) and suspended in phosphate buffer saline (PBS). The suspension (2% hemotocrit) was incubated with different concentrations (3.125 to 100 μg/mL) of the entire compound series at 37°C for 1 h. After 1 h, erythrocytes were pelleted at 3000 g for 10 min (Remi, R-8C/BL) at 4°C. The supernatant was collected and OD450 was determined spectrophotometrically (Biotek, ELx800 UV spectrophotometer) using PBS as a negative control and Triton X-100 for completely lysing the cells. The percent hemolysis was calculated using the following formula: Percent hemolysis = […]. The percent hemolysis was plotted against concentration of compounds for determining the dose cytotoxic to erythrocytes.

[2] = molecular target: T1, plasmepsin 4 (Plasmodium falciparum, UniProt Q8IM16); test: Inhibition of plasmepsin 4, chromogenic substrate cleavage assay; assay type: biochemical; details: pH 4.5; fit to competitive inhibition scheme
T1 construct: preincubated at the assay pH for 3 minutes to allow conversion from the proenzyme to the mature enzyme form; made in house
T1 sequence (Q8IM16 122-449): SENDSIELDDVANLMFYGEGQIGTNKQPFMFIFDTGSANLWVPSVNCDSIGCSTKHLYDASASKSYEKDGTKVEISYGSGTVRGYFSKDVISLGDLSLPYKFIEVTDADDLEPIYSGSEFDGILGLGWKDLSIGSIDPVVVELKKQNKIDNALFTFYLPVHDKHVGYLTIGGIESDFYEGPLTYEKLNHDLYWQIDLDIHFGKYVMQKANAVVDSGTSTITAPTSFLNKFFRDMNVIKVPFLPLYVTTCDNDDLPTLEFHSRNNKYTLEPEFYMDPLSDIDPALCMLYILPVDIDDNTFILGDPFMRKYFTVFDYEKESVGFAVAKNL
Method: (§1) Synthetic compounds were dissolved in DMSO to make stock solutions at concentrations around 100 μM. Dilutions from these stocks were made to obtain solutions to use for studying inhibition of the plasmepsins 2 and 4 from P. falciparum. Assays of enzymatic activity were typically done using 50 micromolar substrate and 50 nanomolar enzyme at pH 4.5. The protein samples were preincubated at the assay pH for 3 minutes to allow conversion from the proenzyme to the mature enzyme form, then immediately mixed with inhibitor solutions and incubated for a further 5 minutes to permit the enzyme-inhibitor complex to form. Following this, the samples were mixed with samples of the substrate to yield a 50 μM substrate concentration in the final assay solution and immediately placed in a recording spectrophotometer to follow the reaction. The cleavage of the chromogenic substrate yields a shift in absorbance that can be quantified by the decrease in absorbance at 300 nm. Compounds were mixed with the enzymes at concentrations ranging from 10 to 50 μM range and the effect on enzyme activity studied in duplicate assays.
(§2) A second inhibitor concentration was chosen that would yield approximately 30–35% inhibition and a third inhibitor concentration was chosen to yield approximately 65–70% inhibition. The three resulting curves of initial velocity versus substrate concentration were fit simultaneously to the competitive inhibition scheme; this yields values of Vmax, Km, and Ki.
(§3) Plasmepsins, a family of aspartic proteases of malaria parasite, are known to participate in a wide variety of cellular processes essential for parasite survival. […] Similarly, plasmepsin 4 from P. falciparum can be prepared and activated. Catalytic activity of the plasmepsins can be studied by following the change in absorbance at 300 nm as cleavage occur between a Phe and a nitroPhe in the synthetic substrate, Lys-Pro-Ile-Glu-Phe-NO2Phe-Arg-Leu. The compounds listed in Tables 1, 2 and 3 were assayed for inhibition by preincubating with differnt concentrations of the compound with equal aliquots of either plasmepsin 2 or 4 followed by mixing with the assay substrate.

[3] = test system: P. falciparum 3D7; test: SYBR green I-based fluorescence parasite growth assay, CQ sensitive strain; assay type: cell-based, Plasmodium falciparum; details: read-out: IC50 values ± SE, growth of P. falciparum (3D7)
Method: (§4) For compound screening, SYBR green I-based fluorescence assay was setup as described in literature. Sorbitol synchronized parasites were incubated under normal culture conditions at 2% hematocrit and 1% parasitemia in the absence or presence of increasing concentrations of the compounds. Chloroquine (CQ) was used as positive control, while 0.4% DMSO was used as the negative control.
(§5) We have studied the antimalarial effect of all the listed molecules in […] culture conditions in order to identify a putative lead structure for pharmacological applications.

[4] = molecular target: T2, plasmepsin 2 (Plasmodium falciparum, UniProt P46925); test: Inhibition of plasmepsin 2, chromogenic substrate cleavage assay; assay type: biochemical; details: pH 4.5; fit to competitive inhibition scheme
T2 construct: preincubated at the assay pH for 3 minutes to allow conversion from the proenzyme to the mature enzyme form; made in house
T2 sequence (P46925 125-453): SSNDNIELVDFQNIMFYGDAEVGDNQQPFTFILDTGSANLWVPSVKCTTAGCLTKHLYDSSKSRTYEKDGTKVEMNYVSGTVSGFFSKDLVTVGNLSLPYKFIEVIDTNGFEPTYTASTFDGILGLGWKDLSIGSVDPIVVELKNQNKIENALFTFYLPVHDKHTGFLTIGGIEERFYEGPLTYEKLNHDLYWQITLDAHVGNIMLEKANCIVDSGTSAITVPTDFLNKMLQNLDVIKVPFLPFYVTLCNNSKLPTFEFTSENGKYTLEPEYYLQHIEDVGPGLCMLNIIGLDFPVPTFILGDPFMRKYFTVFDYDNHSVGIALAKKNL
Method: as §1, §2, §3

[5] = MTT-colorimetric cytotoxicity assay; assay type: cell-based; details: human, MCF-7 cells, read-out: IC50, cytotoxicity on MCF7 cell line
Method: (§6) Phthalimides were serially diluted in DMSO in a final concentration of 100, 25 and 6.25 μg mL^-1 and evaluated for their % cytotoxicity by using MTT-colorimetric assay on MCF-7 cell line. Cell lines were maintained in RPMI-1640 (Hi-Media, Mumbai) medium supplemented with heat inactivated FCS (10% v/v) and 100 U/mL of streptomycin and were cultured in a humidified 5% CO2 atmosphere at 37°C. 100 μL (~2×10^5) of cells were seeded into wells (per well) on a 96-well plate (Nunc, Maxi Sorp) and incubated for 16 h for adherence. After 16 h, media was aspirated from the wells and the cells were washed with RPMI-1640 without FCS. 75 μL of each compound and control was added to separate wells containing cell lines and incubated at 37°C in humidified 5% CO2 atmosphere for 4 h. After 4 h, media containing the compounds was replaced with 200 μL of normal RPMI-1640 and cells were further incubated for 48 h under same conditions. After 48 h media was replaced by 200 μL of MTT (3-(4, 5-dimethylthiazol-2-yl)-2, 5-diphenyltetrazolium bromide, 0.5 mg/mL of RPMI-1640) and further incubated for 2 h. The formazan crystals were formed and suspended in 100 μL iso-propanol containing 0.06 M HCl and 0.5% SDS. Aliquots were drawn from each well and colour intensity was measured spectrophotometrically in an ELISA plate reader (Biotek, ELx800) at 540 nm. Untreated cells were taken as control with 100% viability and cells without addition of MTT were used as blank. The relative cell viability (%) compared to control cells was calculated by [abs] sample/ [abs] control × 100.

[6] = test system: MCF-7 cell line; test: MTT-colorimetric cytotoxicity assay; assay type: cell-based; details: 100, 25 and 6.25 μg mL^-1
Method: as §6

[7] = test system: CQ resistant strain (7GB) of P. falciparum; test: Antiplasmodial activity against CQ resistant strain; assay type: cell-based; details: Plasmodium falciparum, 48 h, read-out: IC50 values ± SE, CQ resistant strain (7GB)
Method: as §4, §5

[8] = Plasmodium falciparum, CQ sensitive strain 3D7, 48 h incubation

Row | SMILES | melting point | IC50 [3, 8] | also measured
1 | CC(C)C[C@@H](C(=O)N[C@H](Cc1ccccc1)[C@@H](O)CN1CCN(C[C@H](O)[C@@H](Cc2ccccc2)NC(=O)[C@H](CC(C)C)N2C(=O)c3ccccc3C2=O)CC1)N1C(=O)c2ccccc2C1=O [Compound 6r] | 141 to 143 °C | 5.12 ± 0.43 µM | hemolysis of human erythrocytes (in words) [1]: least hemotoxic; Ki [2]: > 50 µM; Ki [4]: 1.1 ± 0.1 µM
2 | CCN1CCN(C[C@H](O)[C@@H](Cc2ccccc2)NC(=O)[C@H](Cc2ccccc2)N2C(=O)c3ccccc3C2=O)CC1 [Compound 6f] | 108 to 111 °C | 2.96 ± 0.43 µM | 
3 | CC(C)(C)OC(=O)N[C@H](Cc1ccccc1)[C@@H](O)CN1CCN(Cc2ccc(F)cc2)CC1 [Compound 5c] | 108 to 110 °C | 2.56 ± 0.06 µM | IC50 at 4 h [5]: > 8 µM
4 | CC(C)[C@@H](C(=O)N[C@H](Cc1ccccc1)[C@@H](O)CN1CCN(C[C@H](O)[C@@H](Cc2ccccc2)NC(=O)[C@H](C(C)C)N2C(=O)c3ccccc3C2=O)CC1)N1C(=O)c2ccccc2C1=O [Compound 6t] | 123 to 125 °C | 7.28 ± 0.43 µM | Ki [2]: 3.3 ± 0.3 µM; Ki [4]: > 20 µM
5 | CC(C)(C)OC(=O)N[C@H](Cc1ccccc1)[C@@H](O)CN1CCN(C[C@H](O)[C@@H](Cc2ccccc2)NC(=O)OC(C)(C)C)CC1 [Compound 5f] |  | 3.11 ± 0.11 µM | cytotoxic effect on MCF7 cell line (in words) [6]: maximal toxicity
6 | CC(C)C[C@@H](C(=O)N[C@H](Cc1ccccc1)[C@@H](O)CN1CCN(Cc2ccc(F)cc2)CC1)N1C(=O)c2ccccc2C1=O [Compound 6i] | 134 to 136 °C | 5.27 ± 0.06 µM | 
7 | CC(C)C[C@@H](C(=O)N[C@H](Cc1ccccc1)[C@@H](O)CN1CCN(Cc2ccc(Br)cc2)CC1)N1C(=O)c2ccccc2C1=O [Compound 6m] | 143 to 145 °C | 6.96 ± 0.1 µM | IC50 at 4 h [5]: > 8 µM
8 | O=C(N[C@H](Cc1ccccc1)[C@@H](O)CN1CCN(Cc2ccc(Br)cc2)CC1)[C@H](Cc1ccccc1)N1C(=O)c2ccccc2C1=O [Compound 6n] | 131 to 133 °C | 3.14 ± 0.02 µM | 
9 | CC(C)(C)OC(=O)N[C@H](Cc1ccccc1)[C@@H](O)CN1CCN(Cc2ccc(Br)cc2)CC1 [Compound 5d] | 111 to 114 °C | 4.9 ± 0.01 µM | 
10 | O=C(N[C@H](Cc1ccccc1)[C@@H](O)CN1CCC(N2CCCCC2)CC1)[C@H](Cc1ccccc1)N1C(=O)c2ccccc2C1=O [Compound 6q] | 134 to 136 °C | 8.54 ± 0.04 µM | IC50 at 4 h [5]: > 8 µM
11 | CC(C)[C@@H](C(=O)N[C@H](Cc1ccccc1)[C@@H](O)CN1CCN(C)CC1)N1C(=O)c2ccccc2C1=O [Compound 6c] | 91 to 93 °C | 4.58 ± 0.04 µM | 
12 | CCN1CCN(C[C@H](O)[C@@H](Cc2ccccc2)NC(=O)OC(C)(C)C)CC1 [Compound 5b] | 89 to 91 °C | 5.4 ± 0.06 µM | hemolysis of human erythrocytes (in words) [1]: highest hemotoxicity
13 | CCN(CC)CCCC(C)Nc1ccnc2cc(Cl)ccc12 (stereo not drawn) [CQ, Chloroquine, reference compound] |  |  | IC50 [7]: 1.32 µM; IC50 ([3]; Plasmodium falciparum, 3D7, 48 h): 0.059 µM
14 | CCN1CCN(C[C@H](O)[C@@H](Cc2ccccc2)NC(=O)[C@H](CC(C)C)N2C(=O)c3ccccc3C2=O)CC1 [Compound 6e] | 117 to 119 °C | 2.13 ± 0.02 µM | 
15 | CC(C)C[C@@H](C(=O)N[C@H](Cc1ccccc1)[C@@H](O)CN1CCN(C)CC1)N1C(=O)c2ccccc2C1=O [Compound 6a] | 141 to 143 °C | 4.61 ± 0.06 µM | 
16 | CN1CCN(C[C@H](O)[C@@H](Cc2ccccc2)NC(=O)[C@H](Cc2ccccc2)N2C(=O)c3ccccc3C2=O)CC1 [Compound 6b] | 101 to 103 °C | 3.41 ± 0.03 µM | 
17 | C[C@@H]1CC[C@H]2[C@@H](C)C(=O)O[C@@H]3O[C@@]4(C)CC[C@@H]1[C@]32OO4 [ART, reference compound] |  |  | IC50 ([3]; CQ sensitive strain 3D7, 48 h incubation): 0.021 µM
18 | CN1CCN(C[C@H](O)[C@@H](Cc2ccccc2)NC(=O)OC(C)(C)C)CC1 [Compound 5a] |  | 5.88 ± 0.23 µM | hemolysis of human erythrocytes (in words) [1]: least hemotoxic; IC50 at 4 h [5]: > 8 µM
19 | CCC(C)[C@@H](C(=O)N[C@H](Cc1ccccc1)[C@@H](O)CN1CCN(C[C@H](O)[C@@H](Cc2ccccc2)NC(=O)[C@H](C(C)CC)N2C(=O)c3ccccc3C2=O)CC1)N1C(=O)c2ccccc2C1=O (stereo partly drawn) [Compound 6u] | 131 to 134 °C | 3.24 ± 0.06 µM | Ki [2]: > 50 µM; Ki [4]: 0.99 ± 0.1 µM
20 | CC(C)[C@@H](C(=O)N[C@H](Cc1ccccc1)[C@@H](O)CN1CCN(Cc2ccc(F)cc2)CC1)N1C(=O)c2ccccc2C1=O [Compound 6k] | 137 to 139 °C | 4.59 ± 0.07 µM | IC50 at 4 h [5]: > 8 µM
21 | CC[C@@H](C)[C@@H](C(=O)N[C@H](Cc1ccccc1)[C@@H](O)CN1CCN(C)CC1)N1C(=O)c2ccccc2C1=O [Compound 6d] | 104 to 106 °C | 6.33 ± 0.13 µM | hemolysis of human erythrocytes (in words) [1]: lower hemolysis
22 | CCN1CCN(C[C@H](O)[C@@H](Cc2ccccc2)NC(=O)[C@H](C(C)C)N2C(=O)c3ccccc3C2=O)CC1 [Compound 6g] | 108 to 111 °C | 3.8 ± 0.03 µM | 
